According to patent US20030044399A1, “Method of treatment” (SmithKline Beecham Corporation, priority 1998, published 2003):

Key:
Schisto B 1 = Schisto B 1 (Schistosoma mansoni, UniProt P25792); assay: Cysteine protease inhibition, progress curve method, schistosoma B 1; format: biochemical; details: 10 uM Cbz-Phe-Arg-AMC, 100 mM Na acetate pH 5.5, 5 mM cysteine; read-out: Schisto B 1 Ki
Method: (§1) Standard assay conditions for the determination of kinetic constants used 10 uM fluorogenic peptide substrate, Cbz-Phe-Arg-AMC for the cysteine proteases from Leishmania spp and Schistosoma Mansoni, Cbz-Leu-Arg-AMC for the cysteine proteases from Plasmodium falciparum and Trypanosoma brucei rhodesiensi, and Ac-Lys-Glu-Lys-Leu-Arg-AMC (4 uM final substrate concentration) for the cysteine protease from Trypoanosoma cruzi, and were determined in 100 mM Na acetate at pH 5.5 containing 5 mM cysteine. Stock substrate solutions were prepared at concentrations of […] in DMSO with 10 uM (4 uM for Ac-Lys-Glu-Lys-Leu-Arg-AMC) final substrate concentration in the assays. The final DMSO concentration was 2% and the final volume was 100 uL. All assays were conducted at ambient temperature. Product progress curves were generated over 20 to 30 minutes following formation of AMC product.
(§2) Potential inhibitors were evaluated using the progress curve method. Assays were carried out in the presence of variable concentrations of test compound. Reactions were initiated by addition of enzyme to buffered solutions of inhibitor and substrate. Data analysis was conducted according to one of two procedures depending on the appearance of the progress curves in the presence of inhibitors. For those compounds whose progress curves were linear, apparent inhibition constants (Ki,app) were calculated according to equation 1 (Brandt et al., Biochemitsry, 1989, 28, 140):
(§3) v=VmA/[Ka(1+I/Ki,app)+A] (1)
(§4) Where v is the velocity of the reaction with maximal velocity Vm, A is the concentration of substrate with Michaelis constant of Ka, and I is the concentration of inhibitor.
(§5) [AMC]=vsst+(v0−vss)[1−exp (−kobst)]/kobs (2)
(§6) Where [AMC] is the concentration of product formed over time t, v0 is the initial reaction velocity and vss is the final steady state rate. Values for kobs were then analyzed as a linear function of inhibitor concentration to generate an apparent second order rate constant (kobs/inhibitor concentration or kobs/[I]) describing the time-dependent inhibition. A complete discussion of this kinetic treatment has been fully described (Morrison et al., Adv. Enzymol. Relat. Areas Mol. Biol., 1988, 61, 201).
(§7) Exemplary inhibition data for the compounds used in the present method collected in accordance with the above-described procedure are listed in Table I.

Schisto B 2 = Schisto B 2 (Schistosoma mansoni, UniProt Q95PM1); assay: Cysteine protease inhibition, progress curve method, schistosoma B 2; format: biochemical; details: 10 uM Cbz-Phe-Arg-AMC, 100 mM Na acetate pH 5.5, 5 mM cysteine
Sequence of Schisto B 2 (Q95PM1 entry or part of it): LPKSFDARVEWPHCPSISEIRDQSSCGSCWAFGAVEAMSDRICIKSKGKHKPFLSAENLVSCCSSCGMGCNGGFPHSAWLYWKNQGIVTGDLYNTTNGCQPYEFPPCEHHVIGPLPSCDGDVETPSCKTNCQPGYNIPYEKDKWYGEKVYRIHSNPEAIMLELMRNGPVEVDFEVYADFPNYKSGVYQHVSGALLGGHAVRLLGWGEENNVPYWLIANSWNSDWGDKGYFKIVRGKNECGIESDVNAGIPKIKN
Method: as §1, §2, §3, §4, §5, §6, §7

Cruzain = Cruzain (Trypanosoma cruzi, UniProt P25779); assay: Cysteine protease inhibition, progress curve method, cruzain; format: biochemical; details: 4 uM Ac-Lys-Glu-Lys-Leu-Arg-AMC, 100 mM Na acetate pH 5.5, 5 mM cysteine; read-out: Cruzain Ki
Sequence of Cruzain (P25779 123-337): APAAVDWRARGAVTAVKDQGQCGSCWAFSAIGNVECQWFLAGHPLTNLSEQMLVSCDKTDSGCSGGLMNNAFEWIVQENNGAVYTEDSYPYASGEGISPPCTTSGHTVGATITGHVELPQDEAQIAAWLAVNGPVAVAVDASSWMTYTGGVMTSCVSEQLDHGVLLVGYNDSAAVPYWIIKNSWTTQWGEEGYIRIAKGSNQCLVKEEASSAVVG
Method in brief: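 Buffer was 100 mM sodium acetate pH 5.5 with 5 mM cysteine and 2% DMSO, at ambient temperature; reactions started with enzyme, and AMC formation was followed for 20–30 min. Substrates: Leishmania and Schistosoma, 10 uM Cbz-Phe-Arg-AMC; falcipain, 10 uM Cbz-Leu-Arg-AMC; cruzain, 4 uM Ac-Lys-Glu-Lys-Leu-Arg-AMC. Linear curves gave Ki,app; curved ones gave kobs/[I].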

Rhodazain = Rhodazain (Trypanosoma brucei rhodesiense, UniProt Q95PM0); assay: Cysteine protease inhibition, progress curve method, rhodazain; format: biochemical, Trypanosoma brucei rhodesiensi; details: Rhodazain Ki (nM), 10 uM Cbz-Leu-Arg-AMC, 100 mM Na acetate pH 5.5, 5 mM cysteine
Sequence of Rhodazain (Q95PM0 entry or part of it): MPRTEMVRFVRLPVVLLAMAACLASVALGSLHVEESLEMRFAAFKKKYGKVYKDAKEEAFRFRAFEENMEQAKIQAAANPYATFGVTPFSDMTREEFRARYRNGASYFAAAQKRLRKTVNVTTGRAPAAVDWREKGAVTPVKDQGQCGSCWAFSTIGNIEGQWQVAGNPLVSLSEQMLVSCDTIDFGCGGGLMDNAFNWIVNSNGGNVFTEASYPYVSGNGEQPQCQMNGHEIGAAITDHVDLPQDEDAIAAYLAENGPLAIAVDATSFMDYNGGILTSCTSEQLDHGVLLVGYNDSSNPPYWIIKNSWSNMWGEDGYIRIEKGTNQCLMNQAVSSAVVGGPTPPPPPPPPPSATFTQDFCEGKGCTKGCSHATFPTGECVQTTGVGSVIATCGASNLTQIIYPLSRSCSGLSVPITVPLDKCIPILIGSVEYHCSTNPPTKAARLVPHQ

Falcipain 2 = Falcipain 2 (Plasmodium falciparum, UniProt Q8I6U4); assay: Cysteine protease inhibition, progress curve method, falcipain; format: biochemical; details: 10 uM Cbz-Leu-Arg-AMC, 100 mM Na acetate pH 5.5, 5 mM cysteine
Sequence of Falcipain 2 (Q8I6U4 244-484): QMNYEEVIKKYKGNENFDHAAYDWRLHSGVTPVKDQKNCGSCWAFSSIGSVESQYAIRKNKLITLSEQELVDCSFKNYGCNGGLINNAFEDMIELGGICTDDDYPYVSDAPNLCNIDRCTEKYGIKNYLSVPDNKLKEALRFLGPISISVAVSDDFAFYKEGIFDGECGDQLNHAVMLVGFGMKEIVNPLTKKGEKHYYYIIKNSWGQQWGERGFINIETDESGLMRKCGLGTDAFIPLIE
Method: as §1, §2, §3, §4, §5, §6, §7

Sequence of Schisto B 1 (P25792 89-340): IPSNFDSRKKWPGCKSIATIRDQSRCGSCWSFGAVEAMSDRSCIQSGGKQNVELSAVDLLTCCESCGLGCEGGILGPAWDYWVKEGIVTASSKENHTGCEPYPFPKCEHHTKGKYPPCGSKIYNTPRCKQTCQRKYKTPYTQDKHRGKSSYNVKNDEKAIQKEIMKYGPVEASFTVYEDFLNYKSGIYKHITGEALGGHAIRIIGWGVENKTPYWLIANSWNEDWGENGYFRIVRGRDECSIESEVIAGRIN

With `Cc1c(C(=O)N[C@@H](CC(C)C)C(=O)N[C@H]2CCCN(S(=O)(=O)c3ccc(Cl)cc3)CC2=O)oc2ccccc12` [Example 134, 3-Methyl-benzofuran-2-carboxylic acid-{(S)-1-[1-(4-chloro-benzenesulfonyl)-3-oxo-azepan-4-ylcarbamoyl]-3-methyl-butyl}-amide] the Ki (Schisto B 1) was 78 nM and the Ki (Schisto B 2) was 360 nM.

Compound `O=C(N[C@@H](Cc1ccccc1)C(=O)NC1CCCN(S(=O)(=O)c2ccccn2)CC1=O)c1cc2ccccc2o1` (stereo partly drawn) [Example 104, Benzofuran-2-carboxylic acid {(S)-1-[3-oxo-1-(pyridine-2-sulfonyl)-azepan-4-ylcarbamoyl]-2-phenyl-ethyl}-amide] has a Ki (Cruzain) of 13 nM, a Ki (Rhodazain) of 3.2 nM and a Ki (Schisto B 1) of 76 nM. The Ki (Schisto B 2) was 270 nM.

`COc1cccc(S(=O)(=O)N2CCC[C@H](NC(=O)[C@H](CC(C)C)NC(=O)c3cc4cc(OC)ccc4o3)C(=O)C2)c1` [Example 137, 5-Methoxy-benzofuran-2-carboxylic acid-{(S)-1-[1-(3-methoxy-benzenesulfonyl)-3-oxo-azepan-4-ylcarbamoyl]-3-methyl-butyl}-amide] was tested, and the Ki (Cruzain) was 19 nM, the Ki (Schisto B 1) was 67 nM and the Ki (Schisto B 2) was 380 nM.

Work on `CC(C)C[C@H](NC(=O)c1cnc2ccccc2n1)C(=O)N[C@H]1CCCN(S(=O)(=O)c2ccc(F)cc2)CC1=O` [Example 86] yielded a Ki (Cruzain) of 23 nM, a Ki (Schisto B 1) of 44 nM and a Ki (Schisto B 2) of 260 nM.

Compound `CC(C)C[C@H](NC(=O)c1cc2ccccc2n1C)C(=O)N[C@H]1CCCN(S(=O)(=O)c2ccc(F)cc2)CC1=O` [Example 84] has a Ki (Schisto B 1) of 160 nM and a Ki (Schisto B 2) of 1100 nM.

With `COc1cccc(S(=O)(=O)N2CCC[C@H](NC(=O)[C@H](CC(C)C)NC(=O)c3oc4ccccc4c3C)C(=O)C2)c1` [Example 139, 3-Methyl-benzofuran-2-carboxylic acid-{(S)-1-[1-(3-methoxy-benzenesulfonyl)-3-oxo-azepan-4-ylcarbamoyl]-3-methyl-butyl}-amide] the Ki (Schisto B 1) was 64 nM and the Ki (Schisto B 2) was 230 nM.

`CC(C)C[C@H](NC(=O)c1cc2ccccc2o1)C(=O)N[C@H]1CCCN(S(=O)(=O)c2cccc(Cl)c2)CC1=O` [Example 88, Benzofuran-2-carboxylic acid-{(S)-1-[1-(3-chloro-benzenesulfonyl)-3-oxo-azepan-4ylcarbamoyl]-3-methyl-butyl}-amide] gave a Ki (Schisto B 1) of 77 nM and a Ki (Schisto B 2) of 140 nM.

Work on `CC(C)C[C@@H](NC(=O)c1ccc2c(c1)OCO2)C(=O)N[C@@H]1CCCN(S(=O)(=O)c2ccc(F)cc2)CC1=O` (stereo in doubt) [Example 67, Benzo[1,3]dioxole-5-carboxylic acid {(S)-1-[1-(4-fluoro-benzenesulfonyl)-3-oxo-azepan-4-ylcarbamoyl]-3methyl-butyl}-amide] yielded a Ki (Cruzain) of 11 nM, a Ki (Schisto B 1) of 45 nM and a Ki (Schisto B 2) of 330 nM.

`COc1cccc(S(=O)(=O)N2CCC[C@H](NC(=O)[C@H](CC(C)C)NC(=O)c3cc4ccccc4s3)C(=O)C2)c1` [Example 140, Benzo[b]thiophene-2-carboxylic acid-{(S)-1-[1-(3-methoxy-benzenesulfonyl)-3-oxo-azepan-4-ylcarbamoyl]-3-methyl-butyl}-amide] gave a Ki (Schisto B 1) of 68 nM and a Ki (Schisto B 2) of 280 nM.

`COc1cccc(S(=O)(=O)N2CCC[C@H](NC(=O)[C@H](CC(C)C)NC(=O)c3cc4ccccc4n3C)C(=O)C2)c1` [Example 141, 1-Methyl-1H-indole-2-carboxylic acid-{(S)-1-[1-(3-methoxy-benzenesulfonyl)-3-oxo-azepan-4-ylcarbamoyl]-3-methyl-butyl}-amide] was tested, and the Ki (Schisto B 1) was 50 nM and the Ki (Schisto B 2) was 400 nM.

In the case of `CC(C)C[C@@H](NC(=O)c1cc2cc(OCCN3CCOCC3)ccc2o1)C(=O)NC1CCCN(C(=O)Cc2cccc(-c3ccccn3)c2)CC1=O` (single isomer, unassigned) [Example 4], the Ki (Schisto B 1) is reported as 100 nM and the Ki (Schisto B 2) is reported as 320 nM.

Compound `CC(C)CC(NC(=O)c1cc2ccccc2o1)C(=O)N[C@@H]1CCCN(S(=O)(=O)c2ccc(F)cc2)CC1=O` (stereo partly drawn) [Example 109] has a Ki (Schisto B 1) of 31 nM and a Ki (Schisto B 2) of 120 nM.

`COc1ccc2oc(C(=O)N[C@@H](CC(C)C)C(=O)N[C@H]3CCCN(S(=O)(=O)c4ccc(F)cc4)CC3=O)cc2c1` [Example 85] showed a Ki (Schisto B 1) of 45 nM and a Ki (Schisto B 2) of 130 nM.

`Cc1occc1S(=O)(=O)N1CCC[C@H](NC(=O)[C@H](CC(C)C)NC(=O)c2cc3ccccc3o2)C(=O)C1` [Example 179] was tested, and the Ki (Cruzain) was 2.2 nM, the Ki (Rhodazain) was 5.1 nM and the Ki (Schisto B 1) was 11 nM. It also gave a Ki (Schisto B 2) of 110 nM.

For `CC(C)CC(NC(=O)c1cc2ccccc2s1)C(=O)NC1CCCN(S(=O)(=O)c2ccccn2)CC1=O` (stereo in doubt) [Example 87, Benzo[b]thiophene-2-carboxylic acid {(S)-3-methyl-1-[3-oxo-1-(pyridine-2-sulfonyl)-azepan-4-ylcarbamoyl]-butyl}amide], the Ki (Falcipain 2) was 42 nM, the Ki (Cruzain) was 3 nM and the Ki (Rhodazain) was 1.9 nM. The Ki (Schisto B 1) was 44 nM and the Ki (Schisto B 2) was 260 nM.

For `COc1ccc(C(=O)N[C@@H](CC(C)C)C(=O)N[C@@H]2CCCN(S(=O)(=O)c3ccc(F)cc3)CC2=O)cc1OC` [Example 110, N—{(S)-1-[1-(4-Fluoro-benzenesulfonyl)-3-oxo-azepan-4-ylcarbamoyl}-3-methyl-butyl}-3,4-dimethoxy-benzamide], the Ki (Falcipain 2) was 96 nM, the Ki (Cruzain) was 7.4 nM and the Ki (Schisto B 1) was 38 nM. It also gave a Ki (Schisto B 2) of 280 nM.

In the case of `O=C(NC(Cc1ccccc1)C(=O)N[C@@H]1CCCN(S(=O)(=O)c2ccccn2)CC1=O)c1cccc2ccccc12` (single isomer, unassigned) [Example 190], the Ki (Cruzain) is reported as 8.4 nM, the Ki (Rhodazain) is reported as 2.5 nM and the Ki (Schisto B 1) is reported as 38 nM. It also gave a Ki (Schisto B 2) of 68 nM.

With `COc1cc2cc(C(=O)N[C@H](CC3CCCCC3)C(=O)NC3CCCN(S(=O)(=O)c4cccc[n+]4[O-])CC3=O)oc2cc1OC` (stereo partly drawn) [Example 170, 5,6-Dimethoxy-benzofuran-2-carboxylic acid {(S)-2-cyclohexyl-1-[3-oxo-1-(1-oxy-pyridine-2-sulfonyl)-azepan-4-ylcarbamoyl]-ethyl}-amide] the Ki (Rhodazain) was 4.7 nM, the Ki (Schisto B 1) was 49 nM and the Ki (Schisto B 2) was 82 nM.

`COc1cccc(S(=O)(=O)N2CCC[C@H](NC(=O)[C@H](CC(C)C)NC(=O)c3cc4ccccc4o3)C(=O)C2)c1` [Example 136, Benzofuran-2-carboxylic acid-{(S)-1-[1-(3-methoxy-benzenesulfonyl)-3-oxo-azepan-4-ylcarbamoyl]-3-methyl-butyl}-amide] gave a Ki (Cruzain) of 12 nM, a Ki (Schisto B 1) of 41 nM and a Ki (Schisto B 2) of 170 nM.

For `CC(C)C[C@H](NC(=O)c1ccc2ccccc2n1)C(=O)N[C@H]1CCCN(S(=O)(=O)c2ccc(F)cc2)CC1=O` [Example 83], the Ki (Schisto B 1) was 61 nM and the Ki (Schisto B 2) was 230 nM.

Work on `COc1ccc2oc(C(=O)N[C@@H](CC(C)C)C(=O)N[C@H]3CCCN(S(=O)(=O)c4cccs4)CC3=O)cc2c1` [Example 143, 5-Methoxy-benzofuran-2-carboxylic acid-{(S)-3-methyl-1-[3-oxo-1-(thiophene-2-sulfonyl)-azepan-4-ylcarbamoyl]-butyl}-amide] yielded a Ki (Cruzain) of 5.7 nM, a Ki (Rhodazain) of 6.5 nM and a Ki (Schisto B 1) of 55 nM. For the same compound, the Ki (Schisto B 2) was 110 nM.

With `COc1ccc2oc(C(=O)N[C@@H](CC(C)C)C(=O)N[C@H]3CCCN(S(=O)(=O)c4nccs4)CC3=O)cc2c1` [Example 124, 5-Methoxybenzofuran-2-carboxylic acid {(S)-3-methyl-1-[3-oxo-1-(thiazole-2-sulfonyl)-azepan-4-ylcarbamoyl]-buty}amide] the Ki (Falcipain 2) was 4.9 nM, the Ki (Cruzain) was 2 nM and the Ki (Rhodazain) was 2.2 nM.

With `CC(C)C[C@@H](NC(=O)c1cnc2ccccc2c1)C(=O)N[C@@H]1CCCN(S(=O)(=O)c2ccccn2)CC1=O` (single isomer, unassigned) [Example 156] the Ki (Falcipain 2) was 6.2 nM, the Ki (Cruzain) was 4.1 nM and the Ki (Rhodazain) was 2.6 nM.
